Assay results: a compilation of properties of binary mixtures (doi:10.1016/j.molliq.2020.113457)

Assay: xn = mol fraction of the nth substance listed
Settings: 101 kPa

CCCC[n+]1ccn(C)c1.F[B-](F)(F)F + C=CC(=O)OC
x1 = 1
Settings	speed of sound [m/s]	viscosity [mPa·s]
293.15 K	1576.9	127.6
298.15 K	1565.8	98.9
308.15 K	1542.7	58.4
318.15 K	1518	38.72

C=CC(=O)OC + CCCC[n+]1ccn(C)c1.F[B-](F)(F)F
Settings	speed of sound [m/s]	viscosity [mPa·s]
293.15 K, x2 = 0	1204.7	0.502
293.15 K, x2 = 0.0694	1238.9	0.966
293.15 K, x2 = 0.1889	1296	3.853
293.15 K, x2 = 0.239	1318.8	6.24
293.15 K, x2 = 0.3354	1360.5	12.75
293.15 K, x2 = 0.4317	1399.7	21.82
293.15 K, x2 = 0.5005	1426	29.86
293.15 K, x2 = 0.5693	1451	39.21
293.15 K, x2 = 0.6532	1479.7	52.4
293.15 K, x2 = 0.737	1506.4	67.4
293.15 K, x2 = 0.7927	1523	78.5
293.15 K, x2 = 0.8484	1538.7	90.5
298.15 K, x2 = 0.0694	1218.7	0.725
298.15 K, x2 = 0.1387	1252.9	1.415
298.15 K, x2 = 0.1889	1276.8	2.577
298.15 K, x2 = 0.239	1300	4.295
298.15 K, x2 = 0.3354	1342.7	9.16
298.15 K, x2 = 0.4317	1382.7	16.07
298.15 K, x2 = 0.5005	1409.6	22.26
298.15 K, x2 = 0.5693	1435.3	29.5
298.15 K, x2 = 0.6532	1464.7	39.74
298.15 K, x2 = 0.737	1492.2	51.5
298.15 K, x2 = 0.7927	1509.3	60.2
298.15 K, x2 = 0.8484	1525.6	69.6
298.15 K, x2 = 0.9242	1546.4	83.5
303.15 K, x2 = 0	1162.3	0.428
303.15 K, x2 = 0.0694	1198.4	0.555
303.15 K, x2 = 0.1387	1233.4	–
303.15 K, x2 = 0.1889	1257.7	1.493
303.15 K, x2 = 0.239	1281.1	2.654
303.15 K, x2 = 0.5005	1393.8	16.05
303.15 K, x2 = 0.5693	1420.5	21.63
303.15 K, x2 = 0.6532	1451.2	29.58
303.15 K, x2 = 0.737	1479.5	38.8
303.15 K, x2 = 0.7927	1496.9	45.62
303.15 K, x2 = 0.8484	1514	53
303.15 K, x2 = 0.9242	1534.4	63.9
308.15 K, x2 = 0	1139.1	0.392
308.15 K, x2 = 0.0694	1176.1	0.448
308.15 K, x2 = 0.1387	1211.5	–
308.15 K, x2 = 0.1889	1236.2	–
308.15 K, x2 = 0.239	1260.5	–
308.15 K, x2 = 0.3354	1305.3	3.796
308.15 K, x2 = 0.4317	1347.7	7.6
308.15 K, x2 = 0.5005	1376.1	11.15
308.15 K, x2 = 0.5693	1404.1	15.41
308.15 K, x2 = 0.6532	1435.8	21.55
308.15 K, x2 = 0.737	1465.1	28.73
308.15 K, x2 = 0.7927	1483.3	34.08
308.15 K, x2 = 0.9242	1521	48.5
313.15 K, x2 = 0.0694	1155.4	0.378
313.15 K, x2 = 0.1889	1216.6	–
313.15 K, x2 = 0.3354	1286.1	2.165
313.15 K, x2 = 0.4317	1329.6	5.02
313.15 K, x2 = 0.5005	1359.4	7.79
313.15 K, x2 = 0.5693	1388.1	11.15
313.15 K, x2 = 0.6532	1420.6	16.05
313.15 K, x2 = 0.737	1452.4	21.85
313.15 K, x2 = 0.7927	1471.1	26.2
313.15 K, x2 = 0.8484	1488.1	30.93
313.15 K, x2 = 0.9242	1510.3	38.01
318.15 K, x2 = 0.0694	1134.5	0.355
318.15 K, x2 = 0.1387	1170.8	–
318.15 K, x2 = 0.1889	1195.7	–
318.15 K, x2 = 0.239	1220	–
318.15 K, x2 = 0.4317	1310.6	3.27
318.15 K, x2 = 0.5005	1341.6	5.53
318.15 K, x2 = 0.5693	1371.6	8.34
318.15 K, x2 = 0.737	1437.5	17.48
318.15 K, x2 = 0.7927	1457.2	21.23
318.15 K, x2 = 0.8484	1475.3	25.34
